Measured values taken from ChEMBL document CHEMBL5331086, “Natural product evodiamine-inspired medicinal chemistry: Anticancer activity, structural optimization and structure-activity relationship” (Eur J Med Chem, 2023).
≈ marks a conversion by molar mass, not a printed value.

Key:
[1] = Solubility of compound in water incubated for 24 hrs by HPLC-UV analysis; format: physicochemical
[2] = system: MCF7; assay: Antiproliferative activity against human MCF7 cells assessed as reduction in cell viability incubated for 48 hrs by MTT assay; format: functional, cell-based; details: MCF7, 48 h
[3] = system: MCF7; assay: Antiproliferative activity against human MCF7 cells assessed as reduction in cell viability incubated for 24 hrs by MTT assay; format: functional, cell-based; details: MCF7, 24 h
[4] = system: HepG2; assay: Antiproliferative activity against human HepG2 cells assessed as reduction in cell viability incubated for 24 hrs by MTT assay; format: functional, cell-based; details: HepG2, 24 h
[5] = system: HGC-27; assay: Antiproliferative activity against human HGC-27 cells assessed as reduction in cell viability measured after 48 hrs by MTT assay; format: functional, cell-based; details: HGC-27, 48 h
[6] = system: MDA-MB-231; assay: Antiproliferative activity against human MDA-MB-231 cells assessed as reduction in cell viability incubated for 48 hrs by CCK-8 assay; format: functional, cell-based; details: MDA-MB-231, 48 h
[7] = system: SW-620; assay: Cytotoxicity against human SW-620 cells assessed as reduction in cell viability incubated for 48 hrs by CCK-8 assay; format: functional, cell-based; details: SW-620, 48 h
[8] = system: HCCLM9; assay: Antiproliferative activity against human HCCLM9 cells assessed as reduction in cell growth incubated for 48 hrs by CCK-8 assay; format: functional, cell-based; details: HCCLM9, 48 h
[9] = system: Huh-7; assay: Antiproliferative activity against human Huh-7 cells assessed as reduction in cell viability incubated for 48 hrs by CCK-8 assay; format: functional, cell-based; details: Huh-7, 48 h
[10] = system: HepG2; assay: Antiproliferative activity against human HepG2 cells assessed as reduction in cell viability incubated for 48 hrs by CCK-8 assay; format: functional, cell-based; details: HepG2, 48 h
[11] = system: A549; assay: Antiproliferative activity against human A549 cells; format: functional, cell-based
[12] = system: HCT-116; assay: Antiproliferative activity against human HCT-116 cells; format: functional, cell-based
[13] = Antiproliferative activity against human HUVEC cells; format: toxicity, cell-based
[14] = system: MCF7; assay: Antiproliferative activity against human MCF7 cells; format: functional, cell-based
[15] = system: MDA-MB-435; assay: Cytotoxicity against human MDA-MB-435 cells assessed as reduction in cell viability incubated for 72 hrs by MTT assay; format: functional, cell-based; details: MDA-MB-435, 72 h
[16] = system: HCT-116; assay: Cytotoxicity against human HCT-116 cells assessed as reduction in cell viability incubated for 72 hrs by MTT assay; format: functional, cell-based; details: HCT-116, 72 h
[17] = system: A549; assay: Cytotoxicity against human A549 cells assessed as reduction in cell viability measured after 72 hrs by MTT assay; format: functional, cell-based; details: A549, 72 h
[18] = system: MDA-MB-435; assay: Antiproliferative activity against human MDA-MB-435 cells; format: functional, cell-based
[19] = system: HCT-116; assay: Antiproliferative activity against human HCT-116 cells assessed as reduction in cell viability incubated for 48 hrs by MTT assay; format: functional, cell-based; details: HCT-116, 48 h
[20] = system: A549; assay: Antiproliferative activity against human A549 cells assessed as reduction in cell viability incubated for 48 hrs by MTT assay; format: functional, cell-based; details: A549, 48 h
[21] = target: Histone deacetylase 2 (Homo sapiens, UniProt Q92769); assay: Inhibition of HDAC2 (unknown origin)
[22] = target: Histone deacetylase 1 (Homo sapiens, UniProt Q13547); assay: Inhibition of HDAC1 (unknown origin)
[23] = system: A549; assay: Cytotoxicity against human A549 cells assessed as reduction in cell viability measured after 24 hrs by MTT assay; format: functional, cell-based; details: A549, 24 h
[24] = system: MDA-MB-435; assay: Cytotoxicity against human MDA-MB-435 cells assessed as reduction in cell viability measured after 24 hrs by MTT assay; format: functional, cell-based; details: MDA-MB-435, 24 h
[25] = system: HCT-116; assay: Cytotoxicity against human HCT-116 cells assessed as reduction in cell viability measured after 24 hrs by MTT assay; format: functional, cell-based; details: HCT-116, 24 h
[26] = system: HCT-116; assay: Antiproliferative activity against human HCT-116 cells assessed as reduction in cell viability incubated for 48 hrs by CCK-8 assay; format: functional, cell-based; details: HCT-116, 48 h
[27] = system: NCI-H460; assay: Cytotoxicity against human NCI-H460 cells assessed as reduction in cell viability incubated for 48 hrs by MTT assay; format: functional, cell-based; details: NCI-H460, 48 h
[28] = system: DU-145; assay: Cytotoxicity against human DU-145 cells assessed as cell growth inhibition measured after 48 hrs by MTT assay; format: functional, cell-based; details: DU-145, 48 h
[29] = system: SF-268; assay: Cytotoxicity against human SF-268 cells assessed as reduction in cell viability incubated for 48 hrs by MTT assay; format: functional, cell-based; details: SF-268, 48 h
[30] = system: MCF7; assay: Cytotoxicity against human MCF7 cells assessed as reduction in cell viability incubated for 48 hrs by MTT assay; format: functional, cell-based; details: MCF7, 48 h
[31] = system: HCT-15; assay: Cytotoxicity against human HCT-15 cells assessed as reduction in cell viability incubated for 48 hrs by MTT assay; format: functional, cell-based; details: HCT-15, 48 h
[32] = system: PC-9; assay: Cytotoxicity against human PC-9 cells assessed as reduction in cell viability incubated for 72 hrs by MTT assay; format: functional, cell-based; details: PC-9, 72 h
[33] = system: A549; assay: Cytotoxicity against human A549 cells assessed as reduction in cell viability incubated for 72 hrs by MTT assay; format: functional, cell-based; details: A549, 72 h
[34] = system: MCF7; assay: Cytotoxicity against human MCF7 cells assessed as reduction in cell viability measured after 72 hrs by MTT assay; format: functional, cell-based; details: MCF7, 72 h
[35] = system: PC-3; assay: Cytotoxicity against human PC-3 cells assessed as reduction in cell viability measured after 72 hrs by MTT assay; format: functional, cell-based; details: PC-3, 72 h
[36] = Solubility of compound in water; format: physicochemical

Chain of Histone deacetylase 1 (Q13547 whole entry): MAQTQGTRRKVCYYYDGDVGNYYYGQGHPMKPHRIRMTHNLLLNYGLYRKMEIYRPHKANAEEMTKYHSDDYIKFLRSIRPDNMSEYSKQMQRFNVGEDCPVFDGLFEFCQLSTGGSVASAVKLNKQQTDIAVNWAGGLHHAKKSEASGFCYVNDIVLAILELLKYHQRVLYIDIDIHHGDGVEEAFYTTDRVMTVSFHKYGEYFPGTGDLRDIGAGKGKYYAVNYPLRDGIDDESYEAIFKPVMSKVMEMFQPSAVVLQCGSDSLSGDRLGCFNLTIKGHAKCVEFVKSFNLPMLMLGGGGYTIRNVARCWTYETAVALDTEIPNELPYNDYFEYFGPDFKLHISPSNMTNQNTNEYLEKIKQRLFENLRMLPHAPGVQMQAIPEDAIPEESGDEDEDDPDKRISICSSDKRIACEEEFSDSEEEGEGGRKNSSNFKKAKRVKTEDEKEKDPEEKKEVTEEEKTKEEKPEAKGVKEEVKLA
Chain of Histone deacetylase 2 (Q92769 whole entry): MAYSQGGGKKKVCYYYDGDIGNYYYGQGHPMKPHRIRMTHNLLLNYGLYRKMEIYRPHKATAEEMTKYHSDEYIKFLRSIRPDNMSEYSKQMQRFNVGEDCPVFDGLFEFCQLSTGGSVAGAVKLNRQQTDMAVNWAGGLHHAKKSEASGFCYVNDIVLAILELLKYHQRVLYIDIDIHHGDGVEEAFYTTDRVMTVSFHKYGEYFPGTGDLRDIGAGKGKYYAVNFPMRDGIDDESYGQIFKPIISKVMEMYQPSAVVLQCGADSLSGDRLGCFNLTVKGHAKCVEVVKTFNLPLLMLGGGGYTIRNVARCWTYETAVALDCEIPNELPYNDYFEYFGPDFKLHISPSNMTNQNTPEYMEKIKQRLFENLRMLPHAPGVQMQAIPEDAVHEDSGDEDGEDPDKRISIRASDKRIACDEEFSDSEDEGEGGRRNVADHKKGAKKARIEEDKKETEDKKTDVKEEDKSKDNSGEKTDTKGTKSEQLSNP

CN1c2ccccc2C(=O)N2CCc3c([nH]c4ccc(N)cc34)C21 (configuration not stated)
solubility at 24 h [1]: 10 µg/mL (≈ 31.4 µM)
IC50 [2]: 1800 nM

CN1c2ccccc2C(=O)N2CCc3c(n(S(=O)(=O)c4ccc([N+](=O)[O-])cc4)c4ccccc34)C21 (configuration not stated)
IC50 [3]: 2680 nM
IC50 [4]: 18400 nM

COc1ccc2c(c1)c1c(n2C(=O)c2cc(OC)c(OC)c(OC)c2)C2Oc3ccccc3C(=O)N2CC1 (configuration not stated)
IC50 [5]: 6100 nM

CN1c2cc(N)ccc2C(=O)N2CCc3c([nH]c4ccccc34)C21 (configuration not stated)
IC50 [6]: 790 nM
IC50 [7]: 1280 nM

O=C1c2ccccc2N(c2ccccc2)C2c3[nH]c4ccccc4c3CCN12 (configuration not stated)
IC50 [8]: 9820 nM
IC50 [9]: 740 nM
IC50 [10]: 2390 nM

CN1c2ccccc2C(=O)N2CCc3c([nH]c4ccc(OC(=O)CCC(=O)Oc5ccc6[nH]c7c(c6c5)CCN5C(=O)c6ccccc6N(C)C75)cc34)C21 (configuration not stated)
IC50 [11]: 680 nM
IC50 [12]: 32 nM
IC50 [13]: 210 nM
IC50 [14]: 890 nM

CN1c2ccc(-c3ccnc(N4CCNCC4)c3)cc2C(=O)N2CCc3c([nH]c4ccccc34)C21 (configuration not stated)
IC50 [15]: 2780 nM
IC50 [16]: 5940 nM
IC50 [17]: 6800 nM

Cc1ccc2[nH]c3c(c2c1)CCN1C(=O)c2ccccc2N(c2ccccc2)C31 (configuration not stated)
IC50 [8]: 240 nM
IC50 [9]: 440 nM
IC50 [10]: 920 nM

CN1c2ccccc2C(=O)N2CCc3c([nH]c4ccc(NS(C)(=O)=O)cc34)C21 (configuration not stated)
IC50 [2]: 190 nM

CN1c2ccccc2C(=O)N2CCc3c([nH]c4c(Cl)cccc34)C21 (configuration not stated)
IC50 [18]: < 3 nM
IC50 [19]: < 3 nM
IC50 [20]: 2550 nM

CN1c2ccc(NCc3ccc(/C=C/C(=O)NO)cc3)cc2C(=O)N2CCc3c([nH]c4ccc(O)cc34)C21 (configuration not stated)
IC50 [21]: 230 nM
IC50 [12]: 180 nM
IC50 [22]: 18 nM

CN1c2ccccc2C(=O)N2CCc3c(n(C(=O)c4ccc(Cl)cc4)c4ccc(O)cc34)C21 (configuration not stated)
IC50 [23]: 26600 nM
IC50 [24]: < 2 nM
IC50 [25]: 50 nM

CN1c2ccccc2C(=O)N2[C@H](C(=O)Nc3ccc(C(=O)Nc4ccccc4N)cc3)Cc3c([nH]c4ccccc34)[C@@H]12
IC50 [26]: 1600 nM

CN1c2ccccc2C(=O)N2CCc3c([nH]c4ccc(OC(=O)CCCC(=O)Oc5ccc6[nH]c7c(c6c5)CCN5C(=O)c6ccccc6N(C)C75)cc34)C21 (configuration not stated)
IC50 [11]: 730 nM
IC50 [12]: 32 nM
IC50 [13]: 580 nM
IC50 [14]: 200 nM

COCCCCn1c2c(c3ccccc31)CCN1C(=O)c3ccccc3N(C)C21 (configuration not stated)
IC50 [27]: < 2000 nM
IC50 [28]: < 2000 nM
IC50 [29]: < 2000 nM
IC50 [30]: < 2000 nM
IC50 [31]: < 2000 nM

CN1c2ccc(NC(=O)CBr)cc2C(=O)N2CCc3c([nH]c4ccccc34)C21 (configuration not stated)
IC50 [15]: 22700 nM
IC50 [16]: 28000 nM
IC50 [17]: 154000 nM

CN1c2ccccc2C(=O)N2CCc3c([nH]c4ccccc34)C21 (configuration not stated)
IC50 [5]: 2280 nM
IC50 [8]: 1630 nM
IC50 [9]: 780 nM
IC50 [10]: 21500 nM

CC(N)C(=O)Nc1ccc2[nH]c3c(c2c1)CCN1C(=O)c2ccccc2N(C)C31 (configuration not stated)
IC50 [2]: 520 nM

CN1c2ccccc2C(=O)N2CCc3c([nH]c4c([N+](=O)[O-])cc([N+](=O)[O-])cc34)C21 (configuration not stated)
IC50 [18]: > 200000 nM
IC50 [19]: < 200000 nM
IC50 [20]: > 200000 nM

Cc1cc2c(s1)N(C)C1c3[nH]c4ccccc4c3CCN1C2=O (configuration not stated)
IC50 [32]: 9460 nM
IC50 [33]: 10400 nM
IC50 [34]: 9020 nM
IC50 [35]: 7770 nM

CN1c2ccccc2C(=O)N2CCc3c([nH]c4ccc(O)cc34)C21 (configuration not stated)
IC50 [18]: < 3 nM
IC50 [11]: < 3 nM
IC50 [12]: < 3 nM
solubility [36]: 11 µg/mL (≈ 34.4 µM)

CN1c2ccc(NCC3CCN(c4ncc(C(=O)NO)cn4)CC3)cc2C(=O)N2CCc3c([nH]c4ccc(O)cc34)C21 (configuration not stated)
IC50 [21]: 5 nM
IC50 [12]: 230 nM
IC50 [22]: 4 nM
